Experimental data from US20250387359A1, “COMPOUNDS AND METHODS FOR THE TREATMENT OF PARASITIC INFECTIONS” (THE BOARD OF TRUSTEES OF THE UNIVERSITY OF ILLINOIS, priority 2019, published 2025).
Read-outs that look alike come from different tables or passages of the source.

Assays:
[1] = molecular target: T1, recombinant CpLDH protein (Cryptosporidium parvum, UniProt Q9GT92, F198L/K295E/R251K); assay: CpLDH enzyme kinetics on substrates and co-factors; type: biochemical; conditions: for Km: pyruvate/NADH: reduction of pyruvate to lactate, lactate/NAD+: oxidation of lactate to pyruvate, 25° C.; for Vmax / Kcat: pyruvate/NADH: reduction, lactate/NAD+: oxidation
T1 sequence (Q9GT92 whole entry F198L/K295E/R251K): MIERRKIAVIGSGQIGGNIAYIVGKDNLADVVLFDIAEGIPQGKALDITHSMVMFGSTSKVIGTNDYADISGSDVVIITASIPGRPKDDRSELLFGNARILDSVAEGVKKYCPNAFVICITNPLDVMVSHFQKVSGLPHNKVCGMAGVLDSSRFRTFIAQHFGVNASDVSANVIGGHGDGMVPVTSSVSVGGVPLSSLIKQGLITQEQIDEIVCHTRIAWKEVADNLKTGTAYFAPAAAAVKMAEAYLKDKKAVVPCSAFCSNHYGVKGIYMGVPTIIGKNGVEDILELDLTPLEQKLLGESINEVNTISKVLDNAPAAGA
Protocol: (§1) Biochemical assays. The coding sequence of CpLDH was cloned from cDNA prepared from the AUCP-1 isolate of C. parvum, and the His-tagged CpLDH recombinant protein expressed in Escherichia coli, and purified in native form essentially as previously described (Int. J. Parasitol. 2017; 47(13), 867-874). Briefly, cDNA was prepared from total RNA extracted from the AUCP-1 isolate of C. parvum, and the coding sequencing of CpLDH (Genebank accession number AF274310.1) was PCR-amplified from the cDNA using a primer pair with a XhoI restriction site and a BamHI site. The PCR amplicon was cloned at the XhoI/BamHI site of the pET15b expression vector in-frame with the hexahistidine (His-tag) at the N-terminal and sequenced to confirm identity. The recombinant expression vector was transformed into protein expression E. coli BL21-CodonPlus-DE3-RIL (Stratagene). Transformed E. coli was cultured at 37° C. in Luria broth medium (supplemented with 100 μg/ml ampicillin and 34 μg/ml chloramphenicol) to an A600 of 0.8 followed by addition of 1 mM isopropyl-β-d-thiogalactopyranoside to induce protein expression. The expression E. coli was harvested and lysed under native conditions by sonicating in lysis buffer (50 mM NaH2PO4, 300 mM NaCl, 10 mM Imidazole, pH 8.0) containing a 1× EDTA-free protease inhibitor cocktail, 600 units benzonase and 30 kU lysozyme (EMD Millipore). The lysate was clarified by centrifugation and the His-tagged recombinant protein purified under native conditions by nickel-affinity chromatography according to the manufacturer's instructions (Novagen). The wash buffer used contained 50 mM NaH2PO4, 300 mM NaCl and 20 mM Imidazole, pH 8.0, while the elution buffer was composed of 50 mM NaH2PO4, 300 mM NaCl, 250 mM Imidazole, pH 8.0. The eluate was dialyzed using a buffer containing 5 mM Hepes-KOH (pH 7.8) and 0.5 mM DTT. The purity of the recombinant protein was determined by SDS/PAGE, and the concentration measured using a Qubit 3.0 fluorometer (Life technologies). […] On the other hand, the catalytic activity of CpLDH recombinant protein for the oxidation of lactate to pyruvate was determined by measuring the change in optical density of a 100 μl reaction mixture containing 100 mM lactate, 1 mM NAD^+, 100 mM Tris, pH 9.2, with varying concentrations of CpLDH recombinant protein at 25° C. […] In all assays, reaction mixtures without recombinant CpLDH protein were included as negative controls. All assays were performed in triplicate and repeated at least thrice. The change in optical density was measured every 15 seconds for a total of 2 minutes using a Spectra Max 384 Plus plate reader (Molecular Devices) at a wavelength of 340 nm.

[2] = molecular target: T1, recombinant CpLDH protein; conditions: reported by Zhang et al., PLoS Pathog. 2015; cited from earlier work
[3] = molecular target: T1, recombinant CpLDH protein; assay: biochemical; type: biochemical; conditions: 20 μM compound; 10 mM pyruvate, 1 mM NADH
Protocol: as §1
Screening compounds for inhibitory activity against CpLDH. The chemical compounds were obtained from the National Cancer Institute/Developmental Therapeutics Program Open Chemical Repository. They consisted of a diverse set of compounds (n=27) reported previously (Int J Parasitol Drugs Drug Resist. 2016; 6(1), 44-53), and a Mechanistic Set IV compounds (n=800). The compounds were reconstituted in dimethyl sulfoxide (DMSO) as stock solutions. Just before use, aliquots of the stock solutions were diluted in sterile distilled water to generate working solutions, such that the final amount of DMSO added to the reaction mixtures was less than 1% (V/V). The compounds were tested for their inhibitory effect against the enzymatic activity of recombinant His-tagged CpLDH for catalyzing the reduction of pyruvate to lactate. […] Control reactions without recombinant CpLDH protein were included. Reactions were performed in triplicate and repeated at least thrice. The change in optical density was measured every 15 seconds for a total of 2 minutes using a Spectra Max 384 Plus plate reader (Molecular Devices) at a wavelength of 340 nm.

[4] = test system: HCT-8 cells; assay: Compound cytotoxicity assay (WST-1) in HCT-8 cells; type: cell-based, human
Protocol: Compound cytotoxicity assay. […] A colorimetric assay using the cell proliferation reagent WST-1 (Roche, USA) for the quantification of cell viability was performed. […] When the cells were confluent, the old medium was replaced with fresh medium with or without varying concentrations of chemical compound. After 24 h of culture, 10 μl of the cell proliferation reagent WST-1, (for quantification of cell viability) was added to each well, mixed and the plates incubated for 1 h at 37 C with 5% CO2 in the dark. […] Molecular Devices, USA).

| SMILES | Km ([1]; read-out: Km) [µM] | Vmax [1] [nmol⁻¹ µg⁻¹ min⁻¹] | Kcat [2] | Km [2] [µM] | Vmax [2] | effect on catalytic activity of recombinant CpLDH [3] | IC50 [4] [µM] | also measured |
| --- | --- | --- | --- | --- | --- | --- | --- | --- |
| CC(=O)C(=O)O [Pyruvate, pyruvate] | – | – | – | – | – | – | – | Km [1]: 731 µM |
| NC(=O)C1=CN([C@@H]2O[C@H](COP(=O)(O)OP(=O)(O)OC[C@H]3O[C@@H](n4cnc5c(N)ncnc54)[C@H](O)[C@@H]3O)[C@@H](O)[C@H]2O)C=CC1 [NADH] | 734 | 6.29 | (11.70)* s^−1 | 92 | (9.33)* nmol^−1 · μg^−1 · min^−1 | – | – | – |
| NC(=O)c1ccc[n+]([C@@H]2O[C@H](COP(=O)([O-])OP(=O)(O)OC[C@H]3O[C@@H](n4cnc5c(N)ncnc54)[C@H](O)[C@@H]3O)[C@@H](O)[C@H]2O)c1 [NAD^+] | 56 | 0.07 | (0.70)* s^−1 | 62 | (0.56)* nmol^−1 · μg^−1 · min^−1 | – | – | Kcat [1]: 0.11 s⁻¹ |
| N#CCCN(CCC#N)Cc1cc(O)c(CN(CCC#N)CCC#N)cc1O [NSC70925] | – | – | – | – | – | significant (P<0.05) inhibitory effect | 142 | – |
| [Cl][Cd][Cl] [NSC51148] | – | – | – | – | – | significant (P<0.05) inhibitory effect | 39.6 | – |
| O=c1oc2cc(O)ccc2c2oc3cc(O)ccc3c12 [NSC22842] | – | – | – | – | – | significant (P<0.05) inhibitory effect | 83.5 | – |
| CC(O)C(=O)O (stereo not drawn) [Lactate, lactate] | 39600 | 0.04 | (0.66)* s^−1 | 10800 | (0.53)* nmol^−1 · μg^−1 · min^−1 | – | – | Kcat [1]: 0.07 s⁻¹ |
| CN(C)C(=S)SSC(=S)N(C)C [NSC1771] | – | – | – | – | – | significant (P<0.05) inhibitory effect | – | IC50 ([4]; HCT-8 cells, 24 h, WST-1, read-out: CYTOTOXICITY IC50): 110 µM |
| CC(=O)Nc1ccc(-c2nc3ccccc3s2)cc1 [NSC33006] | – | – | – | – | – | significant (P<0.05) inhibitory effect | 87.3 | – |
| CCOC(C)C(C=NNC(N)=S)=NNC(N)=S (stereo not drawn) [NSC82116] | – | – | – | – | – | significant (P<0.05) inhibitory effect | 118 | – |
